Source: patent US20260184706A1, “PHENYLSULFONAMIDE DERIVATIVES, PREPARATION METHOD THEREFOR, AND PHARMACEUTICAL COMPOSITION FOR PREVENTION OR TREATMENT OF CANCER CONTAINING SAME AS ACTIVE INGREDIENT” (Korea Research Institute of Chemical Technology, priority 2022, published 2026)
pIC50: −log10 of the molar value.

These compounds were tested against recombinant human GCN2 protein (Homo sapiens, UniProt Q9P2K8) (assay: General control nonderepressible 2 (GCN2) inhibitory capacity, 33P-ATP filter assay). Conditions: recombinant human GCN2, 70 uM [gamma-33P-ATP], 40 minutes, room temperature.
recombinant human GCN2 protein, sequence (Q9P2K8 whole entry): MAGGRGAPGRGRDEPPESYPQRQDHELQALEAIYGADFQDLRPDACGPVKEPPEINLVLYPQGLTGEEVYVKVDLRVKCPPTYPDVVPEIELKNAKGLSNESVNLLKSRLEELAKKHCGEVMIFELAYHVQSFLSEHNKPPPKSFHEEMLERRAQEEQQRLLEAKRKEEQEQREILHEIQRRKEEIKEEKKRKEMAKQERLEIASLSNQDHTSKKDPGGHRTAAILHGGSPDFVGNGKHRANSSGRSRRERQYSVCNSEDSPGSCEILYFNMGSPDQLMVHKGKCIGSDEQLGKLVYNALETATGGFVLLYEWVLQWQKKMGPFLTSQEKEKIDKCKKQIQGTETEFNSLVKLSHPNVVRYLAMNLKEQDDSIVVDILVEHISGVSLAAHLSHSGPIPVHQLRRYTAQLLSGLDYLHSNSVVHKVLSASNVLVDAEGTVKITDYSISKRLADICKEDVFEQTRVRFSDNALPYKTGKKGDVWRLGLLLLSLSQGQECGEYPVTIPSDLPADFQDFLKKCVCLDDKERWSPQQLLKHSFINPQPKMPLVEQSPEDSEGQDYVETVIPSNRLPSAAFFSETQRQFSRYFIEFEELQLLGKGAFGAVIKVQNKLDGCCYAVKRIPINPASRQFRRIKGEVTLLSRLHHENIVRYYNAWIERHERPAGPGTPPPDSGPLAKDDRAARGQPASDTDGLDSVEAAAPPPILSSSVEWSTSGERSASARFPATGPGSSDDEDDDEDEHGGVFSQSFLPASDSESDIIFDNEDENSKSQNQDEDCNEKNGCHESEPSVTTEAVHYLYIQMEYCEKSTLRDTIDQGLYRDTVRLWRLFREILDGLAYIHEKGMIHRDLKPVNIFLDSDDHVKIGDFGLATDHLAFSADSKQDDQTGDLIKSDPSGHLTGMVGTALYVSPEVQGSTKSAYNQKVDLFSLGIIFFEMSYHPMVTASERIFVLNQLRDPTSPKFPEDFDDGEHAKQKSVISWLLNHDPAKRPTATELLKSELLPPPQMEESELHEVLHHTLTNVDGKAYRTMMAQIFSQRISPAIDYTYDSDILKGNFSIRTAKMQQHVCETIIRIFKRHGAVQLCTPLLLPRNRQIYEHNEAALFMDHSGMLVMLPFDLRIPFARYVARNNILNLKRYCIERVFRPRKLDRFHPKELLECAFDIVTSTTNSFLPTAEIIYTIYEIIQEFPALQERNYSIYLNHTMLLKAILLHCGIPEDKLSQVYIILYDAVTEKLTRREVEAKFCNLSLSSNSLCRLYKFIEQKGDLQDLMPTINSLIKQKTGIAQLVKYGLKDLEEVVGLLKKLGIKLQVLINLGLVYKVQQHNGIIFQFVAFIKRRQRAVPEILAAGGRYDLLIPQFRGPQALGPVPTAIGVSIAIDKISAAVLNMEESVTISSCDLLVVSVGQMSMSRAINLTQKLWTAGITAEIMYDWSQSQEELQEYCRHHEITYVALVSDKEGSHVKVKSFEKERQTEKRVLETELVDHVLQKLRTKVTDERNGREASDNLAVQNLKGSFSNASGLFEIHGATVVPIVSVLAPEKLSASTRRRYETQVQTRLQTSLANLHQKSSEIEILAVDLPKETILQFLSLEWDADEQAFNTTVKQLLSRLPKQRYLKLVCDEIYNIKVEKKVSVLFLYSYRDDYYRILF
Assay type: biochemical
Protocol: <Experimental Example 2> Evaluation of General Control Nonderepressible 2 (GCN2) Inhibitory Capacity
A recombinant human GCN2 protein was mixed with the compound in a reaction solution (20 mM Tris/HCl pH8.5, 0.2 mM EDTA, 0.1% Tween, 100 mM NaCl, 300 μM RSRSRSRSRSRSRSR, 10 mM Magnesium acetate, 70 uM [gamma-33P-ATP]) and reacted at room temperature for 40 minutes. Then, the reaction was terminated by adding phosphoric acid (0.5%) to the reaction mixture, and 10 ul of the reaction solution was dropped onto a P30 filter. The filter was washed four times in a 0.425% phosphoric acid solution for 4 minutes, then washed once more in methanol, dried, and the GCN2 activity was measured by scintillation counting. […] The compound was diluted by 1/3 from the highest concentration of 1 uM and treated with a total of 9 concentrations to evaluate the degree of inhibition.

| SMILES | pIC50 |
| --- | --- |
| COc1ncc(Cl)cc1S(=O)(=O)Nc1ccc(F)c(-n2cc(Br)c3nc(N)ncc3c2=O)c1F [Example 33, N-(3-(2-amino-8-bromo-5-oxopirido[4,3-d]pyrimidin-6(5H)-yl)-2,4-difluorophenyl)-5-chloro-2-methoxypyridine-3-sulfonamide] | < 6.00 |
| Cc1nn(-c2c(F)ccc(NS(=O)(=O)c3cn(C)nc3C(F)(F)F)c2F)c(=O)c2cnc(N)nc12 [Example 35, N-(3-(2-amino-8-methyl-5-oxopyrimido[4,5-d]pyridazine-6(5H)-yl)-2,4-difluorophenyl)-1-methyl-3-(trifluoromethyl)-1H-pyrazole-4-sulfonamide] | < 6.00 |
| Cc1nn(-c2c(F)ccc(NS(=O)(=O)c3cc(Cl)cc(CO)c3Cl)c2F)c(=O)c2cnc(N)nc12 [Example 37, N-(3-(2-amino-8-methyl-5-oxopyrimido[4,5-d]pyridazine-6(5H)-yl)-2,4-difluorophenyl)-2,5-dichloro-3-(hydroxymethyl)benzene sulfonamide] | < 6.00 |
| Cn1c(=O)n(-c2c(F)ccc(NS(=O)(=O)c3cc(Cl)ccc3Cl)c2F)c(=O)c2cnc(N)nc21 [Example 42, N-(3-(7-amino-1-methyl-2,4-dioxo-1,4-dihydropyrimido[4,5-d]pyrimidin-3(2H)-yl)-2,4-difluorophenyl)-2,5-dichlorobenzenesulfonamide] | 6.52 to 7.00 |
| Cn1c(=O)n(-c2c(F)ccc(NS(=O)(=O)c3cc(C(F)(F)F)ccc3Cl)c2F)c(=O)c2cnc(N)nc21 [Example 49, N-(3-(7-amino-1-methyl-2,4-dioxo-1,2-dihydropyrimido[4,5-d]pyrimidin-3(4H)-yl)-2,4-difluorophenyl)-2-chloro-5-(trifluoromethyl)benzenesulfonamide] | 6.52 to 7.00 |
| CN1C(=O)Cc2cc(S(=O)(=O)Nc3ccc(F)c(-n4c(=O)c5cnc(N)nc5n(C)c4=O)c3F)ccc21 [Example 53, N-(3-(7-amino-1-methyl-2,4-dioxo-1,4-dihydropyrimido[4,5-d]pyrimidin-3(2H)-yl)-2,4-difluorophenyl)-1-methyl-2-oxoindoline-5-sulfonamide] | < 6.00 |
| Cn1c(=O)n(-c2c(F)ccc(NS(=O)(=O)c3cc(F)ccc3F)c2F)c(=O)c2cnc(N)nc21 [Example 54, N-(3-(7-amino-1-methyl-2,4-dioxo-1,4-dihydropyrimido[4,5-d]pyrimidin-3(2H)-yl)-2,4-difluorophenyl)-2,5-difluorobenzenesulfonamide] | 6.52 to 7.00 |
| Cn1c(=O)n(-c2c(F)ccc(NS(=O)(=O)c3ccc(Cl)cc3Cl)c2F)c(=O)c2cnc(N)nc21 [Example 55, N-(3-(7-amino-1-methyl-2,4-dioxo-1,2-dihydropyrimido[4,5-d]pyrimidin-3(4H)-yl)-2,4-difluorophenyl)-2,4-dichlorobenzenesulfonamide] | 6.52 to 7.00 |
| Cn1cc(S(=O)(=O)Nc2ccc(F)c(-n3c(=O)c4cnc(N)nc4n(C)c3=O)c2F)cn1 [Example 56, N-(3-(7-amino-1-methyl-2,4-dioxo-1,4-dihydropyrimido[4,5-d]pyrimidin-3(2H)-yl)-2,4-difluorophenyl)-1-methyl-1H-pyrazole-4-sulfonamide] | < 6.00 |
| CNc1ncc2c(=O)n(-c3c(F)ccc(NS(=O)(=O)c4cc(Cl)cnc4OC)c3F)c(=O)n(C)c2n1 [Example 58, 5-chloro-N-(2,4-difluoro-3-(1-methyl-7-(methylamino)-2,4-dioxo-1,4-dihydropyrimido[4,5-d]pyrimidin-3(2H)-yl)phenyl)-2-methoxypyridine-3-sulfonamide] | 6.52 to 7.00 |
| Nc1ncc2c(n1)N(C1CC1)CN(c1c(F)ccc(NS(=O)(=O)c3cc(Cl)ccc3Cl)c1F)C2=O [Example 59, N-(3-(7-amino-1-cyclopropyl-4-oxo-1,4-dihydropyrimido[4,5-d]pyrimidin-3(2H)-yl)-2,4-difluorophenyl)-2,5-dichlorobenzenesulfonamide] | 6.52 to 7.00 |
| COc1ncc(Cl)cc1S(=O)(=O)Nc1ccc(F)c(N2CN(C3CC3)c3nc(N)ncc3C2=O)c1F [Example 60, N-(3-(7-amino-1-cyclopropyl-4-oxo-1,4-dihydropyrimido[4,5-d]pyrimidin-3(2H)-yl)-2,4-difluorophenyl)-5-chloro-2-methoxypyridine-3-sulfonamide] | 6.52 to 7.00 |
| Nc1ncc2c(n1)N(C1CC1)CN(c1c(F)ccc(NS(=O)(=O)c3cccc4ccccc34)c1F)C2=O [Example 61, N-(3-(7-amino-1-cyclopropyl-4-oxo-1,4-dihydropyrimido[4,5-d]pyrimidin-3(2H)-yl)-2,4-difluorophenyl)naphthalene-1-sulfonamide] | 6.52 to 7.00 |
| Cc1nn(C)c(Cl)c1S(=O)(=O)Nc1ccc(F)c(N2CN(C3CC3)c3nc(N)ncc3C2=O)c1F [Example 62, N-(3-(7-amino-1-cyclopropyl-4-oxo-1,4-dihydropyrimido[4,5-d]pyrimidin-3(2H)-yl)-2,4-difluorophenyl)-5-chloro-1,3-dimethyl-1H-pyrazole-4-sulfonamide] | < 6.00 |
| Cc1nn(C)c(Cl)c1S(=O)(=O)Nc1ccc(F)c(-n2c(=O)c3cnc(N)nc3n(C3CC3)c2=O)c1F [Example 66, N-(3-(7-amino-1-cyclopropyl-2,4-dioxo-1,4-dihydropyrimido[4,5-d]pyrimidin-3(2H)-yl)-2,4-difluorophenyl)-5-chloro-1,3-dimethyl-1H-pyrazole-4-sulfonamide] | 6.00 to 6.52 |

Further lines, results first:

| pIC50 | SMILES |
| --- | --- |
| > 7.00 | COc1ncc(Cl)cc1S(=O)(=O)Nc1ccc(F)c(-n2cc(C)c3nc(N)ncc3c2=O)c1F [Example 21, N-(3-(2-amino-8-methyl-5-oxopirido[4,3-d]pyrimidin-6(5H)-yl)-2,4-difluorophenyl)-5-chloro-2-methoxypyridine-3-sulfonamide] |
| 6.52 to 7.00 | COc1ncc(Cl)cc1S(=O)(=O)Nc1ccc(F)c(-n2cc(CO)c3nc(N)ncc3c2=O)c1F [Example 23, N-(3-(2-amino-8-hydroxymethyl)-5-oxopirido[4,3-d]pyrimidin-6(5H)-2,4-difluorophenyl)-5-chloro-2-methoxypyridine-3-sulfonamide] |
| > 7.00 | Nc1ncc2c(=O)n(-c3c(F)ccc(NS(=O)(=O)c4cc(Cl)ccc4Cl)c3F)ccc2n1 [Example 24, N-(3-(2-amino-5-oxopirido[4,3-d]pyrimidin-6(5H)-yl)-2,4-difluorophenyl)-2,5-dichlorobenzenesulfonamide] |
| 6.52 to 7.00 | Cc1nn(C)c(Cl)c1S(=O)(=O)Nc1ccc(F)c(-n2ccc3nc(N)ncc3c2=O)c1F [Example 30, N-(3-(2-amino-5-oxopirido[4,3-d]pyrimidin-6(5H)-yl)-2,4-difluorophenyl)-5-chloro-1,3-dimethyl-1H-pyrazole-4-sulfonamide] |
| 6.52 to 7.00 | Nc1ncc2c(=O)n(-c3c(F)ccc(NS(=O)(=O)c4ccc(Cl)s4)c3F)ccc2n1 [Example 31, N-(3-(2-amino-5-oxopirido[4,3-d]pyrimidin-6(5H)-yl)-2,4-difluorophenyl)-5-chlorothiophene-2-sulfonamide] |
| > 7.00 | Cc1nn(-c2c(F)ccc(NS(=O)(=O)c3cc(Cl)ccc3Cl)c2F)c(=O)c2cnc(N)nc12 [Example 34, N-(3-(2-amino-8-methyl-5-oxopyrimido[4,5-d]pyridazine-6(5H)-yl)-2,4-difluorophenyl)-2,5-dichlorobenzenesulfonamide] |
| 6.52 to 7.00 | CN1CN(c2c(F)ccc(NS(=O)(=O)c3cc(Cl)ccc3Cl)c2F)C(=O)c2cnc(N)nc21 [Example 39, N-(3-(7-amino-1-methyl-4-oxo-1,4-dihydropyrimido[4,5-d]pyrimidin-3(2H)-yl)-2,4-difluorophenyl)-2,5-dichlorobenzenesulfonamide] |
| 6.52 to 7.00 | COc1ncc(Cl)cc1S(=O)(=O)Nc1ccc(F)c(N2CN(C)c3nc(N)ncc3C2=O)c1F [Example 40, N-(3-(7-amino-1-methyl-4-oxo-1,4-dihydropyrimido[4,5-d]pyrimidin-3(2H)-yl)-2,4-difluorophenyl)-5-chloro-2-methoxypyridine-3-sulfonamide] |
| 6.52 to 7.00 | CN1CN(c2c(F)ccc(NS(=O)(=O)c3cccc4ccccc34)c2F)C(=O)c2cnc(N)nc21 [Example 41, N-(3-(7-amino-1-methyl-4-oxo-1,4-dihydropyrimido[4,5-d]pyrimidin-3(2H)-yl)-2,4-difluorophenyl)naphthalene-1-sulfonamide] |
| > 7.00 | COc1ncc(C#N)cc1S(=O)(=O)Nc1ccc(F)c(-n2c(=O)c3cnc(N)nc3n(C)c2=O)c1F [Example 47, N-(3-(7-amino-1-methyl-2,4-dioxo-1,4-dihydropyrimido[4,5-d]pyrimidin-3(2H)-yl)-2,4-difluorophenyl)-5-cyano-2-methoxypyridine-3-sulfonamide] |
| > 7.00 | Cn1c(=O)n(-c2c(F)ccc(NS(=O)(=O)c3ccc(Cl)s3)c2F)c(=O)c2cnc(N)nc21 [Example 50, N-(3-(7-amino-1-methyl-2,4-dioxo-1,4-dihydropyrimido[4,5-d]pyrimidin-3(2H)-yl)-2,4-difluorophenyl)-5-chlorothiophene-2-sulfonamide] |
| > 7.00 | Cc1ccc(Cl)cc1S(=O)(=O)Nc1ccc(F)c(-n2c(=O)c3cnc(N)nc3n(C)c2=O)c1F [Example 52, N-(3-(7-amino-1-methyl-2,4-dioxo-1,4-dihydropyrimido[4,5-d]pyrimidin-3(2H)-yl)-2,4-difluorophenyl)-5-chloro-2-methylbenzenesulfonamide] |
